Measured values taken from patent US20190055576A1, “USE OF HERBICIDE-TOLERANT PROTEIN” (BEIJING DABEINONG TECHNOLOGY GROUP CO., LTD., priority 2016, published 2019).

Assays:
Type in all cases: in vivo
[1] = system: wild-type Arabidopsis thaliana plants; test: Herbicide tolerance of wild-type Arabidopsis thaliana plants, resistance classes counted after spraying; details: 1-fold field concentration (g ai/ha: Sulfometuron-methyl 30, iodosulfuron-methyl 10, mesosulfuron 14, oxasulfuron 60), 14 days after spraying
From the text: (§1) T1 transformants were initially selected from the background of untransformed seeds using a glufosinate selection scheme. About 40000 T1 seeds were screened, and 380 T1 positive transformants (PAT gene) were identified with a transformation efficiency of about 0.95%. The plants that were transformed with the recombinant expression vector DBN100632 were Arabidopsis thaliana plants having an ALT-1-01 nucleotide sequence located in the cytoplasm introduced (At cytoplasmic ALT-1-01), and the plants that were transformed with the recombinant expression vector DBN100631 were Arabidopsis thaliana plants having an ALT-1-01 nucleotide sequence located in the chloroplast introduced (At chloroplastic ALT-1-01); the plants that were transformed with the recombinant expression vector DBN100634 were Arabidopsis thaliana plants having an ALT-2-01 nucleotide sequence located in the cytoplasm introduced (At cytoplasmic ALT-2-01), and the plants that were transformed with the recombinant expression vector DBN100633 were Arabidopsis thaliana plants having an ALT-2-01 nucleotide sequence located in the chloroplast introduced (At chloroplastic ALT-2-01); and the plants that were transformed with the recombinant expression vector DBN100636 were Arabidopsis thaliana plants having an ALT-3-01 nucleotide sequence located in the cytoplasm introduced (At cytoplasmic ALT-3-01), and the plants that were transformed with the recombinant expression vector DBN100635 were Arabidopsis thaliana plants having an ALT-3-01 nucleotide sequence located in the chloroplast introduced (At chloroplastic ALT-3-01). The herbicide tolerance effects of At cytoplasmic ALT-1-01 T1 plants, At chloroplastic ALT-1-01 T1 plants, At cytoplasmic ALT-2-01 T1 plants, At chloroplastic ALT-2-01 T1 plants, At cytoplasmic ALT-3-01 T1 plants, At chloroplastic ALT-3-01 T1 plants and wild-type Arabidopsis thaliana plants on Sulfometuron-methyl were detected (14 days after sowing), respectively.
(§2) At cytoplasmic ALT-1-01 T1 plants, At chloroplastic ALT-1-01 T1 plants, At cytoplasmic ALT-2-01 T1 plants, At chloroplastic ALT-2-01 T1 plants, At cytoplasmic ALT-3-01 T1 plants, At chloroplastic ALT-3-01 T1 plants and wild-type Arabidopsis thaliana plants were sprayed with Sulfometuron-methyl (30 g ai/ha, 1-fold field concentration) and a blank solvent (water), respectively. Plants were counted for the resistance situations 14 days after spraying: those having a consistent growth status with the blank solvent (water) group after 14 days were classified as highly resistant plants, those having a bolting height less than ½ of that of the blank solvent (water) group after 14 days were classified as moderately resistant plants, those still not capable of bolting after 14 days were classified as poorly resistant plants, and those dead after 14 days were classified as non-resistant plants. Since each Arabidopsis thaliana T1 plant was an independent transformation event, a significant difference in individual T1 responses could be expected at a given dose.
(§3) At cytoplasmic ALT-1-01 T1 plants, At chloroplastic ALT-1-01 T1 plants, At cytoplasmic ALT-2-01 T1 plants, At chloroplastic ALT-2-01 T1 plants, At cytoplasmic ALT-3-01 T1 plants, At chloroplastic ALT-3-01 T1 plants and wild-type Arabidopsis thaliana plants in Example 4 were sprayed with iodosulfuron-methyl (10 g ai/ha, 1-fold field concentration), mesosulfuron (14 g ai/ha, 1-fold field concentration) and oxasulfuron (60 g ai/ha, 1-fold field concentration), respectively, in addition to Sulfometuron-methyl (30 g ai/ha, 1-fold field concentration) and the blank solvent (water). […]

[2] = system: transgenic Arabidopsis thaliana T1 plants (ALT-1-01, ALT-2-01, ALT-3-01; cytoplasmic or chloroplastic); test: Herbicide tolerance of transgenic Arabidopsis thaliana T1 plants expressing thifensulfuron hydrolase, resistance classes counted after spraying; details: for Highly resistant (number of plants with growth status consistent with blank solvent group) / Moderately resistant (number of plants with bolting height less than 1/2 of blank solvent group) / Non-resistant (number of plants dead) / Poorly resistant (number of plants still not capable of bolting): 1-fold field concentration (g ai/ha: Sulfometuron-methyl 30, iodosulfuron-methyl 10, mesosulfuron 14, oxasulfuron 60), 14 days after spraying; for ability of the transformed plants to degrade the herbicide: all the transformed Arabidopsis thaliana T1 plants (ALT-1, ALT-2 and ALT-3), 1-fold field concentration
From the text: as §1, §2, §3

[3] = system: wild-type soybean plants (CK1); test: Glyphosate tolerance of wild-type soybean plants, herbicide damage rate; details: 840 g ae/ha, 1-fold field concentration, 14 days after spraying
From the text: (§4) The herbicide tolerance effects of Gm cytoplasmic ALT-1-01 soybean plants, Gm chloroplastic ALT-1-01 soybean plants, Gm cytoplasmic ALT-2-01 soybean plants, Gm chloroplastic ALT-2-01 soybean plants, Gm cytoplasmic ALT-3-01 soybean plants, Gm chloroplastic ALT-3-01 soybean plants and wild-type soybean plants on glyphosate were detected (at seedling stage), respectively.
(§5) 2 strains from Gm cytoplasmic ALT-1-01 soybean plants, Gm chloroplastic ALT-1-01 soybean plants, Gm cytoplasmic ALT-2-01 soybean plants, Gm chloroplastic ALT-2-01 soybean plants, Gm cytoplasmic ALT-3-01 soybean plants, Gm chloroplastic ALT-3-01 soybean plants and wild-type soybean plants were respectively taken each, and 10-15 plants were selected from each strain and tested. The plants above were sprayed with glyphosate (840 g ae/ha, 1-fold field concentration) and a blank solvent (water). The herbicide damage rate was measured for each plant according to the phytotoxicity symptoms 14 days after spraying (14 DAT): herbicide damage rate (%)=Σ(number of damaged plants at the same level×level number)/(total number of plants×highest level).

[4] = system: transgenic soybean plants (Gm cytoplasmic/chloroplastic ALT-1-01, ALT-2-01, ALT-3-01); test: Glyphosate tolerance of transgenic soybean plants (ALT + EPSPS), herbicide damage rate; details: 840 g ae/ha, 1-fold field concentration, 14 days after spraying
From the text: as §4, §5

[5] = At chloroplastic ALT-1-01 T1 plants
[6] = At chloroplastic ALT-2-01 T1 plants
[7] = At chloroplastic ALT-3-01 T1 plants
[8] = At cytoplasmic ALT-1-01 T1 plants
[9] = At cytoplasmic ALT-2-01 T1 plants
[10] = At cytoplasmic ALT-3-01 T1 plants

COC(=O)c1ccc(I)cc1S(=O)(=O)NC(=O)Nc1nc(C)nc(OC)n1 [iodosulfuron-methyl]
30: Non-resistant (number of plants dead) [2, 5] | Non-resistant (number of plants dead) [2, 9] | Non-resistant (number of plants dead) [2, 10]
29: Non-resistant (number of plants dead) [1] | Non-resistant (number of plants dead) [2, 8]
32: Non-resistant (number of plants dead) [2, 7]
0: Highly resistant (number of plants with growth status consistent with blank solvent group) [1] | Moderately resistant (number of plants with bolting height less than 1/2 of blank solvent group) [1] | Poorly resistant (number of plants still not capable of bolting) [1] | Highly resistant (number of plants with growth status consistent with blank solvent group) [2, 5] | Moderately resistant (number of plants with bolting height less than 1/2 of blank solvent group) [2, 5] | Poorly resistant (number of plants still not capable of bolting) [2, 5] | Highly resistant (number of plants with growth status consistent with blank solvent group) [2, 6] | Moderately resistant (number of plants with bolting height less than 1/2 of blank solvent group) [2, 6] | Poorly resistant (number of plants still not capable of bolting) [2, 6] | Highly resistant (number of plants with growth status consistent with blank solvent group) [2, 7] | Moderately resistant (number of plants with bolting height less than 1/2 of blank solvent group) [2, 7] | Poorly resistant (number of plants still not capable of bolting) [2, 7] | Highly resistant (number of plants with growth status consistent with blank solvent group) [2, 8] | Moderately resistant (number of plants with bolting height less than 1/2 of blank solvent group) [2, 8] | Poorly resistant (number of plants still not capable of bolting) [2, 8] | Highly resistant (number of plants with growth status consistent with blank solvent group) [2, 9] | Moderately resistant (number of plants with bolting height less than 1/2 of blank solvent group) [2, 9] | Poorly resistant (number of plants still not capable of bolting) [2, 9] | Highly resistant (number of plants with growth status consistent with blank solvent group) [2, 10] | Moderately resistant (number of plants with bolting height less than 1/2 of blank solvent group) [2, 10] | Poorly resistant (number of plants still not capable of bolting) [2, 10]
31: Non-resistant (number of plants dead) [2, 6]
did not exhibit the ability to degrade: ability of the transformed plants to degrade the herbicide [2]

O=C(O)CNCP(=O)(O)O [glyphosate, N-phosphonomethylglycine]
not less than 90%: glyphosate herbicide damage rate [3]
~0%: glyphosate herbicide damage rate ([4]; Gm chloroplastic ALT-1-01 soybean plants) | glyphosate herbicide damage rate ([4]; Gm chloroplastic ALT-2-01 soybean plants) | glyphosate herbicide damage rate ([4]; Gm chloroplastic ALT-3-01 soybean plants) | glyphosate herbicide damage rate ([4]; Gm cytoplasmic ALT-1-01 soybean plants) | glyphosate herbicide damage rate ([4]; Gm cytoplasmic ALT-2-01 soybean plants) | glyphosate herbicide damage rate ([4]; Gm cytoplasmic ALT-3-01 soybean plants)

Cc1cc(C)nc(NC(=O)NS(=O)(=O)c2ccccc2C(=O)OC2COC2)n1 [oxasulfuron]
28: Non-resistant (number of plants dead) [1] | Non-resistant (number of plants dead) [2, 8]
did not exhibit the ability to degrade: ability of the transformed plants to degrade the herbicide [2]
0: Highly resistant (number of plants with growth status consistent with blank solvent group) [1] | Moderately resistant (number of plants with bolting height less than 1/2 of blank solvent group) [1] | Poorly resistant (number of plants still not capable of bolting) [1] | Highly resistant (number of plants with growth status consistent with blank solvent group) [2, 5] | Moderately resistant (number of plants with bolting height less than 1/2 of blank solvent group) [2, 5] | Poorly resistant (number of plants still not capable of bolting) [2, 5] | Highly resistant (number of plants with growth status consistent with blank solvent group) [2, 6] | Moderately resistant (number of plants with bolting height less than 1/2 of blank solvent group) [2, 6] | Poorly resistant (number of plants still not capable of bolting) [2, 6] | Highly resistant (number of plants with growth status consistent with blank solvent group) [2, 7] | Moderately resistant (number of plants with bolting height less than 1/2 of blank solvent group) [2, 7] | Poorly resistant (number of plants still not capable of bolting) [2, 7] | Highly resistant (number of plants with growth status consistent with blank solvent group) [2, 8] | Moderately resistant (number of plants with bolting height less than 1/2 of blank solvent group) [2, 8] | Poorly resistant (number of plants still not capable of bolting) [2, 8] | Highly resistant (number of plants with growth status consistent with blank solvent group) [2, 9] | Moderately resistant (number of plants with bolting height less than 1/2 of blank solvent group) [2, 9] | Poorly resistant (number of plants still not capable of bolting) [2, 9] | Highly resistant (number of plants with growth status consistent with blank solvent group) [2, 10] | Moderately resistant (number of plants with bolting height less than 1/2 of blank solvent group) [2, 10] | Poorly resistant (number of plants still not capable of bolting) [2, 10]
30: Non-resistant (number of plants dead) [2, 5] | Non-resistant (number of plants dead) [2, 6] | Non-resistant (number of plants dead) [2, 9] | Non-resistant (number of plants dead) [2, 10]
31: Non-resistant (number of plants dead) [2, 7]

COc1cc(OC)nc(NC(=O)NS(=O)(=O)c2cc(CNS(C)(=O)=O)ccc2C(=O)O)n1 [mesosulfuron]
32: Non-resistant (number of plants dead) [2, 5] | Non-resistant (number of plants dead) [2, 7] | Non-resistant (number of plants dead) [2, 9]
28: Non-resistant (number of plants dead) [1]
29: Non-resistant (number of plants dead) [2, 8]
30: Non-resistant (number of plants dead) [2, 6] | Non-resistant (number of plants dead) [2, 10]
did not exhibit the ability to degrade: ability of the transformed plants to degrade the herbicide [2]
0: Highly resistant (number of plants with growth status consistent with blank solvent group) [1] | Moderately resistant (number of plants with bolting height less than 1/2 of blank solvent group) [1] | Poorly resistant (number of plants still not capable of bolting) [1] | Highly resistant (number of plants with growth status consistent with blank solvent group) [2, 5] | Moderately resistant (number of plants with bolting height less than 1/2 of blank solvent group) [2, 5] | Poorly resistant (number of plants still not capable of bolting) [2, 5] | Highly resistant (number of plants with growth status consistent with blank solvent group) [2, 6] | Moderately resistant (number of plants with bolting height less than 1/2 of blank solvent group) [2, 6] | Poorly resistant (number of plants still not capable of bolting) [2, 6] | Highly resistant (number of plants with growth status consistent with blank solvent group) [2, 7] | Moderately resistant (number of plants with bolting height less than 1/2 of blank solvent group) [2, 7] | Poorly resistant (number of plants still not capable of bolting) [2, 7] | Highly resistant (number of plants with growth status consistent with blank solvent group) [2, 8] | Moderately resistant (number of plants with bolting height less than 1/2 of blank solvent group) [2, 8] | Poorly resistant (number of plants still not capable of bolting) [2, 8] | Highly resistant (number of plants with growth status consistent with blank solvent group) [2, 9] | Moderately resistant (number of plants with bolting height less than 1/2 of blank solvent group) [2, 9] | Poorly resistant (number of plants still not capable of bolting) [2, 9] | Highly resistant (number of plants with growth status consistent with blank solvent group) [2, 10] | Moderately resistant (number of plants with bolting height less than 1/2 of blank solvent group) [2, 10] | Poorly resistant (number of plants still not capable of bolting) [2, 10]
